What was measured:
[1] = Side effects, hematology and blood chemistry in treated animals
[2] = test system: P493 cells; experiment: ATP levels, luciferin-luciferase-based assay; type: cell-based, human; conditions: 9 μM FX11 or 0.5 nM FK866, 20 hours
Experimental: P493 cells were treated with 9 μM FX11 or 0.5 nM FK866 for 20 hours and counted. ATP levels were determined by luciferin-luciferase-based assay (Promega) on aliquots containing equal number of cells according to standard protocol.

[3] = test system: P493 cells; experiment: Mitochondrial membrane potential by JC-1 flow cytometry; type: cell-based, human; conditions: 9 μM FX11 or/and FK866, 24 hours
Text: The lipophilic cation dye (5,5′,6,6′-tetrachloro-1,1′,3,3′-tetraethylbenzimidazolcarbocyanine iodide, JC-1) (Invitrogen) was used to detect the loss of the mitochondrial membrane potential. The negative charge established by the intact mitochondrial membrane potential lets the lipophilic dye stain the mitochondria bright red which emits in channel 2 (FL2). When the mitochondrial membrane potential collapses, JC-1 remains in the cytoplasm in a green fluorescent monomeric emission in channel 1 (FL1). JC-1 reversibly changes its color from green to orange as membrane potentials increase (over values of 80-100 mV). 10^5 cells/ml were treated with 9 μM FX11 or/and FK866 for 24 hours. Stained cells were analyzed in FACScan flow cytometers (BD Bioscience).

[4] = test system: P493 human lymphoma B cells; experiment: Human P493 B cell lymphoma xenograft; type: in vivo, SCID mice; conditions: treatment from 200 mm^3; daily IP 42 μg FX11 and/or 100 μg FK866; ten days
Experimental: The animal studies were performed according to the protocols approved by the Animal Care and Use Committee at Johns Hopkins University. In order to generate tumorigenesis study in xenograft model, 2.0×10^7 P493 human lymphoma B cells or 5×10^6 human pancreatic cancer cells were injected subcutaneously into male SCID mice (NCI) or athymic Hsd: RH-Foxn1nu mice (Harlan), respectively, as previously described (Feldmann et al., 2007; Gao et al., 2009; Gao et al., 2007). When the tumor volume reached 200 mm^3, groups of 5 mice were injected with control 2% DMSO or 42 μg FX11 and/or 100 μg FK866. The tumor volumes were measured using a digital caliper after 4, 7 and 10 days of treatment. Tumor volumes were calculated using the following formula: [length (mm)×width (mm)×width (mm)×0.52]. The entire experiment was repeated seven times.

[5] = test system: P493 cells; experiment: ROS measurement by DCFDA flow cytometry; type: cell-based, human
Experimental: The measurement of intracellular ROS production was measured by staining cells with 5-(and-6)-carboxy-2′,7′-dichlorodihydrofluorescein diacetate (carboxy-H2DCFDA; Molecular Probes) according to the manufacturer's instructions. 10^5 cells/ml were treated with 9 μM FX11 or FK866 for 24 hours. Stained cells were analyzed in FACScan flow cytometers (BD Bioscience).

[6] = test system: AMP kinase (AMPK); experiment: Immunoblot of phospho-AMPK; type: cell-based, human; conditions: 20 hours of exposure
[7] = test system: P493 human lymphoma B cells; experiment: Cell population growth, trypan blue live cell count; type: cell-based
Experimental: P493 human lymphoma B cells were maintained in RPMI 1640 with 10% fetal bovine serum (FBS) and 1% penicillin-streptomycin. P198 human pancreatic cancer cells; RCC4, RCC4-VHL human renal carcinoma cells; MCF-7 and MDA-MB-453 breast cancer cells were maintained in high glucose (4.5 mg/ml) DMEM with 10% FBS and 1% penicillin-streptomycin. Non-hypoxic cells (20% O2) were maintained at 37° C. in a 5% CO2, 95% in an air incubator. Hypoxic cells (1% O2) were maintained in a controlled atmosphere chamber (PLAS-LABS, Lansing, Mich.) with a gas mixture containing 1% O2, 5% CO2, and 94% N2 at 37° C. for the indicated time. Bright live cells were counted daily in a hemacytometer using trypan blue dye to exclude dead cells. All cells were grown at a concentration of 10^5 cells/ml. All drugs treatment began at day 0.
siRNAs targeting human LDHA (ON-TARGETplus SMARTpool) were purchased from Dharmacon Research Inc. Targeting sequences for LDHA were a pool of the following four target sequences: sequence 1, […]; sequence 2, […]; sequence 3, […]; sequence 4, […]. Accordingly, one of skill in the art would recognize the siRNA sequences corresponding to these targets. For P493 human lymphoma B cells, transfection of siRNAs was performed using an Amaxa Nucleotransfection device according to the manufacturer's instructions. Briefly, 2 μg siLDHA ON-TARGETplus SMARTpool or ON-TARGETplus Non-targeting Pool (Dharmacon Research Inc.) were transfected into 2×10^6 cells at 0 hours. […]. The remaining cells were harvested for immunoblot analysis. For P198 human pancreatic cancer cells, transfection of siRNAs was performed using X-tremeGENE siRNA Transfection Reagent (Roche) according to the manufacturer's instructions.

[8] = target: T1, LDHA (Homo sapiens, UniProt P00338); experiment: Screen of 1200 FDA approved compounds for an inhibitor of LDHA; type: biochemical
Text: Reduction of LDHA by siRNA induced oxidative stress and cell death. To determine whether a small molecule inhibitor of LDHA could be used to modulate tumor metabolism, 1200 FDA approved compounds were screened to identify an inhibitor of LDHA. […] As such, a series of compounds generated by Vander Jagt and coworkers, who were specifically interested in targeting malarial LDH (pLDH) (Deck et al., 1998; Yu et al., 2001) was screened. […]; 2,3-dihydroxy-6-methyl-7-(phenylmethyl)-4-propylnaphthalene-1-carboxylic acid, Pubchem ID: 10498042) and 11e (E; 2,3-dihydroxy-6-methyl-7-(methyl)-4-propylnaphthalene-1-carboxylic acid, Pubchem ID: 10265351). […]; Yu et al., 2001). […]

[9] = test system: P493 cells; experiment: Annexin V / 7-AAD cell death assay; type: cell-based, human; conditions: NAC 20 mM at 24 hours post-transfection
[10] = target: T1, LDHA; conditions: cited from earlier work
[11] = target: purified human liver LDHA (Homo sapiens, UniProt P00338); experiment: Determination of Ki and enzyme kinetics of LDHA
Experimental: The reaction velocity of purified human LDHA or GAPDH was determined by a decrease or increase in absorbance at 340 nm of NADH, respectively. […] The GADPH activity was assessed using the protocol described in Worthington Enzyme Manual: http://www.worthington-biochem.com/GAPD/assay.html with varying concentrations of NAD^+. Ki values were determined from double-reciprocal plots by linear regression analysis using SigmaPlot Enzyme Kinetic software.

With `O=C(/C=C/c1cccnc1)NCCCCC1CCN(C(=O)c2ccccc2)CC1` [FK866, reference compound] the “kidney (BUN, creatinine) or liver (aspartate aminotransferase, alanine aminotransferase, alkaline phosphatase) toxicity by blood chemistries” value ([1]; doses that affected tumor growth in vivo) was “did not reveal any evidence”, the “hematology (cytopenia)” value ([1]; single agent, five animals studied) was “mild thrombocytopenia” and the ATP levels [2] was “decrease in ATP levels”. The mitochondrial membrane potential [3] was “decreased”, the “tumor growth of established P493 lymphoma xenografts” value [4] was “cytostatic outcome” and the ROS production ([5]; 9 μM FX11 or FK866, 24 hours) was “increased ROS production”. The “AMP kinase (AMPK) activation” value [6] was “activation” and the “proliferation of P493 cells” value ([7]; single agent) was “diminished proliferation”.
In the case of `CCCOc1ccccc1-c1nc2nn[nH]c2c(=O)[nH]1` [Zaprinast], the “LDHA inhibition in screen” value [8] is reported as “weak LDHA inhibitor”.
For `CC(=O)N[C@@H](CS)C(=O)O` [NAC, N-acetylcysteine, reference compound], the “effect on cell death of siRNA-transfected cells” value [9] was “partially reduced cell death”, the “effect on ROS induced by LDHA siRNA” value ([5]; cells exposed to NAC) was “attenuated” and the “effect on proliferation of P493 cells treated with either FX11 or FK866” value ([7]; 20 mM NAC) was “partially rescue”. For the same compound, the “effect on cell proliferation of siRNA-transfected cells” value ([7]; NAC 20 mM at 24 hours post-transfection) was “partial rescue of cell proliferation”.
In the case of `CCCc1c(O)c(O)c(C(=O)O)c2cc(C)c(C)cc12` [E, 2,3-dihydroxy-6-methyl-7-(methyl)-4-propylnaphthalene-1-carboxylic acid, reference compound], the “tumor growth of established P493 lymphoma xenografts” value [4] is given as “no detectable anti-tumor activity”, the LDHA inhibitory activity [10] is given as “lower inhibitory activity versus FX11” and the Ki [11] is given as over 90 µM. For the same compound, the “mode of inhibition of LDHA” value ([11]; NADH as substrate, Lineweaver-Burk plots) was “competitive inhibitors”.

Reference: patent US20120003156A1, “METHODS FOR TREATING NEOPLASIA BY INHIBITING LACTATE DEHYDROGENASE AND/OR NICOTINAMIDE PHOSPHORIBOSYLTRANSFERASE” (The Johns Hopkins University, priority 2008, published 2012)
